This note sets out measurements from ChEMBL document CHEMBL5360614, “Quinoline Thiourea-Based Zinc Ionophores with Antibacterial Activity” (J Med Chem, 2023).

Data set [1] relates to Staphylococcus aureus. Briefly: Bactericidal activity against Staphylococcus aureus MTCC-96 at 2 times MIC incubated for 2 hrs in presence of ZnCl2 by time kill assay. It is filed as functional, organism-based.
Data set [2] concerns Lipid bilayer. The experiment in a line: Induction of ionophore activity across EYPC:CHOL (8:2) large unilamellar vesicles assessed as transmembrane Zn2+ ion transport by measuring fluorescence intensity for CFZ dye at 5 to 20 uM preincubated for 3 mins followed by ZnCl2 addition and mesured after 7.5 mins by CFZ dye based fluorescence spectrophotometric analysis. The following applies: filed as opener; dose 5-20 µM, time 10.5 min.

For the next data set, the system named is PBMC. The experiment in a line: Cytotoxicity against human PBMC cells assessed as reduction in cell viability at 12.5 to 200 uM incubated for 24 hrs by MTT assay. It is filed as toxicity, cell-based. The following applies: dose 12.5-200 µM. For orientation: Tetrazolium assays rely on reduction of a dye to a coloured formazan, in cell work by metabolically active cells.

The subject of another data set is Cell membrane. Briefly: Induction of ionophore activity across Staphylococcus aureus MTCC-96 cell membrane assessed as AQZ directed Zn2+ ion transport by measuring increase in AQZ fluorescence intensity in presence of ZnCl2 and 2-((2-(2-hydroxyethoxy)ethyl)-amino)-N-(quinolin-8-yl)acetamide by fluorescence analysis. It is filed as subcellular. The following applies: filed as opener.

In data set [3] the test system is Staphylococcus aureus. The experiment in a line: In vivo antibacterial activity against Staphylococcus aureus MTCC-96 infected in Balb/c mouse assessed as bacterial load by measuring CFU in spleen at 156.5 microM/Kg, iv for 7 days by CFU assay. The following applies: time 7.0 day. It is filed as functional, organism-based.
The test system of data set [4] is Staphylococcus aureus. The experiment in a line: In vivo antibacterial activity against Staphylococcus aureus MTCC-96 infected in Balb/c mouse assessed as uniform distribution of hepatic lobules in liver tissue at 156.5 microM/Kg, iv for 7 days by hematoxylin and eosin staining based microscopic analysis. It is filed as functional, organism-based. The following applies: time 7.0 day.

For data set [5], the system named is Staphylococcus aureus. Briefly: In vivo antibacterial activity against Staphylococcus aureus MTCC-96 infected in Balb/c mouse assessed as less dilated portal vein in liver at 156.5 microM/Kg, iv for 7 days by hematoxylin and eosin staining based microscopic analysis. It is filed as functional, organism-based. The following applies: time 7.0 day.
Data set [6] relates to Lipid bilayer. The experiment in a line: Induction of ionophore activity across EYPC:CHOL (8:2) large unilamellar vesicles assessed as transmembrane Zn2+ ion transport by measuring decrease in fluorescence intensity for HPTS dye at 10 uM preincubated for 3 mins in presence of FCCP followed by ZnCl2 addition and mesured after 7.5 mins by HPTS dye based fluorescence spectrophotometric analysis. The following applies: filed as opener, time 10.5 min.

Data set [7] relates to Staphylococcus aureus. The experiment in a line: In vivo antibacterial activity against Staphylococcus aureus MTCC-96 infected in Balb/c mouse assessed as uniform distribution of sinusoids in liver tissue at 31.6 microM/Kg, iv for 7 days in presence of ZnCl2 by hematoxylin and eosin staining based microscopic analysis. In kind it is functional, organism-based. The following applies: time 7.0 day.

In data set [8] the test system is Staphylococcus aureus. The experiment in a line: In vivo antibacterial activity against Staphylococcus aureus MTCC-96 infected in Balb/c mouse assessed as bacterial load by measuring CFU in liver at 156.5 microM/Kg, iv for 7 days by CFU assay (Rvb= 719 CFU). It is filed as functional. The following applies: time 7 day.
Data set [9] deals with Lipid bilayer. Briefly: Induction of ionophore activity across EYPC:CHOL (8:2) large unilamellar vesicles assessed as transmembrane Zn2+ ion transport by measuring fluorescence intensity for CFZ dye at 10 uM preincubated for 3 mins followed by ZnCl2 addition and mesured after 7.5 mins by CFZ dye based fluorescence spectrophotometric analysis. The following applies: filed as opener, time 10.5 min.

For data set [10], the system named is Staphylococcus aureus. The experiment in a line: In vivo antibacterial activity against Staphylococcus aureus MTCC-96 infected in Balb/c mouse assessed as normal architecture of portal vein in liver tissue at 31.6 microM/Kg, iv for 7 days in presence of ZnCl2 by hematoxylin and eosin staining based microscopic analysis. It is filed as functional, organism-based. The following applies: time 7.0 day.

In data set [11] the test system is Staphylococcus aureus. Briefly: Induction of intracellular ROS generation in Staphylococcus aureus MTCC-96 assessed as change in fluorescence intensity at 1 uM incubated for 30 mins in presence of Zn2+ ions by DCF-DA staining based fluorescence spectroscopic analysis. In kind it is functional, organism-based.
In data set [12] the test system is Staphylococcus aureus. Briefly: Antibacterial activity against gentamicin-and methicillin-resistant Staphylococcus aureus ATCC 33592 assessed as reduction in bacterial growth incubated for 14 to 16 hrs in presence of 400 uM ZnCl2 by microbroth dilution method. In kind it is functional. The following applies: time 14-16 hrs. Background: Dilution methods test growth across graded concentrations, often in twofold steps.

In data set [13] the test system is Staphylococcus aureus. Briefly: Bactericidal activity against Staphylococcus aureus MTCC-96 at 2 times MIC incubated for 1 hrs by time kill assay. In kind it is functional, organism-based.
In data set [14] the test system is Staphylococcus aureus. Briefly: In vivo antibacterial activity against Staphylococcus aureus MTCC-96 infected in Balb/c mouse assessed as liver central vein with minimum infiltration at 156.5 microM/Kg, iv for 7 days by hematoxylin and eosin staining based microscopic analysis. In kind it is functional, organism-based. The following applies: time 7.0 day.
For data set [15], the system named is Staphylococcus aureus. The experiment in a line: In vivo antibacterial activity against Staphylococcus aureus MTCC-96 infected in Balb/c mouse assessed as normal morphology of spleen tissue at 31.6 microM/Kg, iv for 7 days in presence of ZnCl2 by hematoxylin and eosin staining based microscopic analysis. In kind it is functional, organism-based. The following applies: time 7.0 day.

Data set [16] relates to Staphylococcus aureus. The experiment in a line: In vivo antibacterial activity against Staphylococcus aureus MTCC-96 infected in Balb/c mouse assessed as hepatocyte distribution at 156.5 microM/Kg, iv for 7 days by hematoxylin and eosin staining based microscopic analysis. In kind it is functional, organism-based. The following applies: time 7.0 day.
In data set [17] the test system is Staphylococcus aureus. The experiment in a line: Antibacterial activity against gentamicin-and methicillin-resistant Staphylococcus aureus ATCC 33592 assessed as reduction in bacterial growth incubated for 14 to 16 hrs in presence of 200 uM ZnCl2 by microbroth dilution method. The following applies: time 14-16 hrs. In kind it is functional.
Data set [18] concerns Staphylococcus aureus. The experiment in a line: In vivo antibacterial activity against Staphylococcus aureus MTCC-96 infected in Balb/c mouse assessed as uniform distribution of hepatocytes in liver tissue at 156.5 microM/Kg, iv for 7 days by hematoxylin and eosin staining based microscopic analysis. The following applies: time 7.0 day. It is filed as functional, organism-based.

Data set [19] concerns Staphylococcus aureus. The experiment in a line: In vivo antibacterial activity against Staphylococcus aureus MTCC-96 infected in Balb/c mouse assessed as less dilated hepatic artery at 156.5 microM/Kg, iv for 7 days by hematoxylin and eosin staining based microscopic analysis. In kind it is functional, organism-based. The following applies: time 7.0 day.

Each structure is given as a SMILES string. Active and inactive are the calls of the source. No cut-off for these calls is given here.

Turning to `FC(F)(F)c1cc(NC(=S)Nc2cccc3cccnc23)cc(C(F)(F)F)c1`, the result in the data set on Staphylococcus aureus [1] was Active.
For orientation: MIC means the lowest concentration found to suppress growth. `FC(F)(F)c1cc(NC(=S)Nc2cccc3ccc(-n4cnc5ccccc54)nc23)cc(C(F)(F)F)c1`: the Activity result is “Dose-Dependent Effect” with Lipid bilayer [2], “Non-Toxic” with PBMC and 46 CFU with Staphylococcus aureus [8]. Further, the outcome with Cell membrane, in the data set on Staphylococcus aureus [3], in the data set on Staphylococcus aureus [4], in the data set with Staphylococcus aureus [5], in the data set on Lipid bilayer [6] and with Staphylococcus aureus [7] was Active. In addition, the result with Lipid bilayer [9], with Staphylococcus aureus [10], in the data set on Staphylococcus aureus [11], in the data set with Staphylococcus aureus [13], in the data set with Staphylococcus aureus [14] and in the data set with Staphylococcus aureus [15] was Active. The result with Staphylococcus aureus [16], in the data set with Staphylococcus aureus [18] and in the data set with Staphylococcus aureus [19] was Active. Further, the MIC in the data set on Staphylococcus aureus [12] and in the data set on Staphylococcus aureus [17] was 2 µM in each case.
